Drawing on PubChem BioAssay AID179 (DTP/NCI, 2004), this text covers EC50, IC50 and outcome for 25 compounds.

The assay concerns CEM cells HIV-1 protection, formazan growth assay. As to the kind of experiment: NCI AIDS Antiviral Assay. Conditions: for IC50: measured here: growth of uninfected CEM cells. Summed up:
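CEM (human) cells, HIV-1 infected vs uninfected, 5-point dosing, formazan growth read-out. Retest threshold 50% protection.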

Activity calls are given as the source filed them.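 The calls were made as follows: active = compounds giving half or more protection of infected cells from virus-caused growth loss, again on retest; inactive = the rest.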

Regarding `Nc1c(N=O)c(=O)n(Cc2ccccc2)c(=O)n1Cc1ccccc1`, the EC50 is > 200 µM and the IC50 worked out at 11.7 µM.

For `O=C1OC(O)C(Oc2ccc(Cl)cc2)=C1Cl` (stereo not drawn), the EC50 is > 437 µM and the IC50 amounted to 195 µM.

Turning to `CCOC(=N)CNC(=O)c1ccccc1`, the EC50 is > 200 µM and the IC50 is > 200 µM.

For `COc1ccc2c(C)c(CNc3ccccc3)c(=O)oc2c1OC`, the EC50 was > 11 µM and the IC50 is > 11 µM.

With `COC(=O)C(=O)C(C(=O)C(=O)Nc1ccccc1C(N)=O)c1nc2ccc(C(=O)c3ccccc3)cc2[nH]c1=O` (stereo not drawn), the EC50 was > 240 µM and the concentration for half-maximal inhibition (IC50) is 63.1 µM.

As to `C1CCC(N([P-]P([P-]N(C2CCCCC2)C2CCCCC2)N(C2CCCCC2)C2CCCCC2)C2CCCCC2)CC1.[C-]#[O+].[C-]#[O+].[C-]#[O+].[C-]#[O+].[C-]#[O+].[C-]#[O+].[Fe].[Fe]` (stereo not drawn), the EC50 was > 0.603 µM and the IC50 was > 0.603 µM.

Turning to `CN(C)c1ccc(N=Nc2ccc3nc[nH]c3c2)cc1`, the EC50 was > 200 µM and the IC50 came out at 41.7 µM.

For the compound `Nc1ccc(C(=O)N/C(=C\c2ccc3c(c2)OCO3)c2nc3ccccc3s2)cc1`, the outcome was inactive.

Turning to `O=C1C2C3C=C4c5ccccc5N(c5ccccc5)C4([C@@H]2C(=O)N1c1ccc(F)cc1)[C@H]1C(=O)N(c2ccc(F)cc2)C(=O)[C@@H]31` (stereo partly drawn), the EC50 was > 12 µM and the IC50 was > 12 µM.

Consider `Nc1nc(=O)n(C2OC(CO)C(O)C2Cl)cc1I` (stereo not drawn), for which the EC50 was > 200 µM and the IC50 is 1.17 µM.

As for `Cc1c2[nH]c(c1CCC(=O)O)/C=c1\[n-]/c(c(C)c1CCC(=O)O)=C\c1[n-]c(c(C)c1C(C)O)/C=c1\[nH]/c(c(C)c1C(C)O)=C\2.[Cl][Pt+2][Cl]` (stereo not drawn), the EC50 was > 20.9 µM and the IC50 is 14.5 µM.

As for `CN1CC=C(c2cccn2C)CC1`, the EC50 was > 200 µM and the IC50 was determined as 132 µM.

In the case of `O=c1oc2c(-c3ccccc3)cccc2c(O)c1-c1ccccc1`, the EC50 is > 200 µM and the IC50 turned out to be 85.1 µM.

As for `C/C(=N\NC(=O)CCSCCC(=O)N/N=C(\C)c1ccc(OS(C)(=O)=O)cc1)c1ccc(OS(C)(=O)=O)cc1`, the EC50 is > 200 µM and the IC50 was > 200 µM.

As to `O=S(=O)(F)c1cccc(Cl)c1C[P+](c1ccccc1)(c1ccccc1)c1ccccc1`, the EC50 is > 200 µM and the IC50 stood at 25.7 µM.

Consider `Cc1cc(N(CCC#N)CCC#N)ccc1/C(N=Nc1ccc([N+](=O)[O-])cc1)=N\NC(=O)c1cc(Cl)ccc1C(=O)c1ccccc1`, for which the EC50 is > 200 µM and the IC50 is 11.2 µM.

For `CCN(CCCN(CC)C(=O)Nc1ccccc1)C(=O)Nc1ccccc1`, the EC50 was > 200 µM and the IC50 came to 155 µM.

On to `Cc1ccc2c(c1)[nH]c(=S)n2C=C(C(N)=O)C(N)=O`, for which the EC50 was > 200 µM and the IC50 is > 200 µM.

On to `Cc1cccc2c(=O)c3c(O)cc(O)cc3n(C)c12`, for which the EC50 is 145 µM and the IC50 is > 200 µM.

Consider `C=C(C)/C=C/C(O)[C@](C)(O)[C@H]1[C@H](O)C[C@@]2(C)[C@@H]3CCc4c(cc(OC5OC(CO)C(O)C(O)C5O)c(O)c4C)C3(C)C(=O)C[C@]12C` (stereo partly drawn), for which the EC50 was > 200 µM and the IC50 was > 200 µM.

Consider `CCCC[P+](CCCC)(CCCC)C(C(=O)OC)C(C(=O)OC)=C1SC(C(=O)OC)=C(C(=O)OC)S1` (stereo not drawn), for which the EC50 is > 200 µM and the IC50 was > 200 µM.

In the case of `COc1c2occc2c(N=Cc2ccccn2)c2ccc(=O)oc12`, the EC50 was > 39.8 µM and the IC50 was > 39.8 µM.

As to `CSc1ccc(/C=C2/C[N+](C)(C)C/C(=C/c3ccc(SC)cc3)C2=O)cc1`, the EC50 was > 129 µM and the concentration for half-maximal inhibition (IC50) worked out at 12.3 µM.

As to `CCOC(=O)C1(C)C2=CC=C(O2)C(C)(C)C2=CC=C(O2)C(C)(C)C2=CC=C(O2)C(C)(C)C2=CC=C1O2`, the result was inactive.

As to `O=c1nc(-c2ccccc2)cc(CC(O)(c2ccc(C(F)(F)F)cc2)c2ccc(Cl)c(Cl)c2)[nH]1` (stereo not drawn), the EC50 was > 20 µM and the IC50 is > 20 µM.

The term EC50 denotes the concentration that produces a half-maximal response. By IC50 is commonly meant the concentration needed to halve the response being measured. Low readings indicate greater potency in that assay, high ones weaker potency in that assay.
